Data from PMC3578047 (European journal of pharmacology, 2012).
Where a name gives a salt, the structure may show the parent alone.

What was measured:
[1] = system: streptozocin induced type I diabetic neuropathic pain (mechanical allodynia); format: in vivo, rat; settings: for anti-allodynic effect over the time course versus vehicle: 15 min to 6 h; for effect on neuropathic allodynia versus vehicle: 10 mg/kg s.c., over 6 h time course
[2] = system: lipopolysaccharide induced inflammatory pain (mechanical allodynia); format: in vivo, rat; settings: for effect on lipopolysaccharide induced allodynia over the dose range: s.c. 60 min prior to lipopolysaccharide, at 2 h
naive rats [3] = test: von Frey assay in the absence of a pain state; format: in vivo, rat; settings: for mechanical withdrawal thresholds in naive rats: 3 mg/kg
[4] = system: plasma epoxyeicosatrienoic acids, dihydroxyeicosatrienoic acids, PGE2 and PGD2; test: plasma oxylipin analysis in the inflammatory pain model; format: in vivo, rat; settings: 2 h post lipopolysaccharide
[5] = ref Liu et al., 2009; cited from earlier work
[6] = ref Liu 2009; cited from earlier work
[7] = cynomolgus monkey; ref Ulu et al., 2011; cited from earlier work
naive rats [8] = test: rotorod motor skill test; settings: 3 mg/kg
human sEH = settings: read-out: IC50 Human, fluorescent assay, ref Hwang 2007; cited from earlier work
[9] = plasma pharmacokinetics in rat; format: in vivo; settings: low dose, mean plasma AUC (S2)
experimental logP = settings: determined experimentally as described by Tsai et al. 2010
[10] = 3 mg/kg s.c. 60 min prior to lipopolysaccharide

## CC(=O)N1CCC(NC(=O)NC23CC4CC(CC(C4)C2)C3)CC1 [APAU, 1-(1-acetypiperidin-4-yl)-3-adamantanylurea]
[1]; 3 mg/kg s.c., diabetic rats
  duration of anti-nociception: up to 5 h
  time of first anti-allodynic effect: 15 min
  anti-allodynic effect over the time course versus vehicle: blocked allodynia by the first measurement at 15 minutes
[1]; diabetic rats
  effect on neuropathic allodynia versus vehicle: significantly decreased allodynia
[1]; s.c., dose range 0.1-100 mg/kg, at 2 h
  most effective dose against allodynia: 3 mg/kg
[2]; 3 mg/kg oral gavage in PEG400, 1 h prior to lipopolysaccharide
  effect of oral gavage dose compared to s.c. dose: equaled the maximal effect of the s.c. dose
[2]; [10]
  earliest time point at which pain was blocked: 15 min
  effect over the time course versus vehicle control: significant versus vehicle control over the time course
[2]
  effect on lipopolysaccharide induced allodynia over the dose range: All doses of APAU except 0.1 mg/kg significantly blocked the lipopolysaccharide induced allodynia
Naive rats [3]
  mechanical withdrawal thresholds in naive rats: showed no effect in the assay
Naive rats [3]; 100 mg/kg
  nociceptive thresholds in absence of pain state versus vehicle: did not significantly alter the nociceptive thresholds
[4]; 3 mg/kg
  plasma PGE2 and PGD2 versus lipopolysaccharide + vehicle: reduced both prostaglandins significantly
[4]; 100 mg/kg
  plasma PGE2 and PGD2 versus lipopolysaccharide + vehicle: did not significantly decrease PGE2 and PGD2 levels
[4]; 3 and 100 mg/kg
  sum dihydroxyeicosatrienoic acids in plasma versus vehicle controls: significantly lowered dihydroxyeicosatrienoic acids
  sum epoxyeicosatrienoic acids in plasma versus vehicle controls: did not significantly alter sum epoxyeicosatrienoic acids levels
[5]
  plasma half-life: relatively short plasma half-life
[6]
  Water Solubility: 310 ±60 mg/L^b
[7]
  plasma protein binding: 35.5%

## Cc1ccc(-c2cc(C(F)(F)F)nn2-c2ccc(S(N)(=O)=O)cc2)cc1 [celecoxib, reference compound]
[1]; diabetic rats
  effect on neuropathic allodynia versus vehicle: no significant effect on the neuropathic allodynia
[2]; 10 mg/kg, 1 h prior to intraplantar lipopolysaccharide, over 6 h time course
  effect on lipopolysaccharide induced allodynia: marginal effect at the 3 hour time point

## CN1CC[C@]23c4c5ccc(O)c4O[C@H]2[C@@H](O)C=C[C@H]3[C@H]1C5 [morphine, Morphine sulfate, reference compound]
Naive rats [3]
  mechanical withdrawal thresholds in naive rats: significant increase in mechanical withdrawal thresholds
Naive rats [8]
  rotorod performance versus vehicle controls: no significant effect on rotorod performance

## O=C(NC12CC3CC(CC(C3)C1)C2)N[C@H]1CC[C@H](Oc2ccc(C(=O)O)cc2)CC1 [t-AUCB, trans-4-[4-(3-adamantan-1-yl-ureido)-cyclohexyloxy]-benzoic acid]
[1]; 3 mg/kg s.c., diabetic rats
  anti-allodynic effect over the time course versus vehicle: significant versus vehicle control over the time course but overall the effect was brief
[1]; s.c., dose range 1-100 mg/kg, at 2 h
  only dose with significant anti-allodynic effect: 100 mg/kg
[2]; [10]
  effect over the time course versus vehicle control: lacked a significance versus vehicle control over the time course
[2]
  effect on lipopolysaccharide induced allodynia over the dose range: significantly blocked pain related behavior only at the two highest doses 30 and 100 mg/kg
Human sEH
  IC50: […]

## O=C(Nc1cccc(OC(F)(F)F)c1)N[C@H]1CC[C@H](Oc2ccc(C(=O)O)cc2)CC1 [t-TUCB, trans-4-[4-(3-trifluoromethoxyphenyl-l-ureido)-cyclohexyloxy]-benzoic acid]
[1]; 3 mg/kg s.c., diabetic rats
  anti-allodynic effect over the time course versus vehicle: significantly effective versus vehicle control over the time course but was delayed and less active when compared to APAU
[1]; 10 mg/kg, diabetic rats, early time points (Fig. S1, Table S3)
  mechanical withdrawal thresholds: increased mechanical withdrawal thresholds to pre-diabetic pain free scores at early time points
[1]; s.c., dose range 0.1-100 mg/kg, at 3 h
  dose of maximal response, the only significant dose: 10 mg/kg
[9]
  overall pharmacokinetics in rats: best overall pharmacokinetics at low dose
Human sEH
  IC50: 0.9 nM
[7]
  plasma protein binding: 99%
Experimental logP
  eLogP: 1.6
